# Reference: ChEMBL document CHEMBL1132282, “Discovery of novel non-peptide CCR1 receptor antagonists” (J Med Chem, 1999)
# Molecular target: T1, C-C chemokine receptor type 1 (Homo sapiens, UniProt P32246)
# T1 sequence (P32246 whole entry): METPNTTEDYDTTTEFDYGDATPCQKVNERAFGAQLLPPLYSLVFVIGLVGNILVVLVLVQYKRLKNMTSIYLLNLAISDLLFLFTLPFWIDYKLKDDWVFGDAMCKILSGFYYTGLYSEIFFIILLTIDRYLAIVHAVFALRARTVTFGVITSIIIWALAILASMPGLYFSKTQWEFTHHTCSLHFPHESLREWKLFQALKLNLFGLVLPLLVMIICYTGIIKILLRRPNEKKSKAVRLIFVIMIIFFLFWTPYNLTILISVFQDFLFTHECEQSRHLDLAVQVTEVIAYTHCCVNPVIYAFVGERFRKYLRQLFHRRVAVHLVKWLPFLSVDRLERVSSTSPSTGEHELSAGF
# Test: Inhibition of [125I]-MIP-1 alpha binding to recombinant human C-C chemokine receptor type 1 expressed in HEK293 cells
# Assay type: cell-based
smiles,measurement,value
COC(=O)C(CCCN1CCC(O)(c2ccc(Cl)cc2)CC1)(c1ccccc1)c1ccccc1,Ki,406 nM
CCOc1ccc(C(C#N)CCCN2CCC(O)(c3ccc(Cl)cc3)CC2)cc1 (stereo not given),Ki,1420 nM
N#CC(CCCN1CCC(O)(c2ccc(Cl)cc2)CC1)c1cccnc1 (stereo not given),Ki,1000 nM
N#CC(CCCN1CCC(O)(c2ccc(Cl)cc2)CC1)c1ccccn1 (stereo not given),Ki,584 nM
N#CC(CCCN1CCC(O)(c2ccc(Cl)cc2)CC1)c1c(F)c(F)c(F)c(F)c1F (stereo not given),Ki,330 nM
N#CC(CCCN1CCC(O)(c2ccc(Cl)cc2)CC1)c1ccccc1F (stereo not given),Ki,371 nM
O=C(NCC(CCCN1CCC(O)(c2ccc(Cl)cc2)CC1)(c1ccccc1)c1ccccc1)NC1CCNCC1,Ki,9 nM
N#CC(CCCN1CCC(O)(c2cccs2)CC1)(c1ccccc1)c1ccccc1,Ki,1020 nM
NCC(CCCN1CCC(O)(c2ccc(Cl)cc2)CC1)(c1ccccc1)c1ccccc1,Ki,244 nM
COc1cc(C(C#N)CCCN2CCC(O)(c3ccc(Cl)cc3)CC2)cc(OC)c1OC (stereo not given),Ki,497 nM
N#CC(CCCN1CCC(O)(c2ccc(C(F)(F)F)cc2)CC1)(c1ccccc1)c1ccccc1,Ki,153 nM
N#CC(CCCN1CCC(O)(c2ccc(Cl)cc2)CC1)c1ccccc1O (stereo not given),Ki,790 nM
N#CC1(CCCN2CCC(O)(c3ccc(Cl)cc3)CC2)c2ccccc2C[S+]([O-])c2ccccc21 (stereo in doubt; 6p),Ki,54 nM
COc1ccc(C2(O)CCN(CCCC(C#N)(c3ccccc3)c3ccccc3)CC2)cc1,Ki,347 nM
N#CC1(CCCN2CCC(O)(c3ccc(Cl)cc3)CC2)c2ccccc2C[S+]([O-])c2ccccc21 (stereo in doubt; 6q),Ki,71 nM
COc1ccc(C(C#N)CCCN2CCC(O)(c3ccc(Cl)cc3)CC2)cc1 (stereo not given),Ki,359 nM
N#CC(CCCN1CCC(O)(c2ccc(Cl)cc2)CC1)c1cccc(Oc2ccccc2)c1 (stereo not given),Ki,908 nM
N#CC1(CCCN2CCC(O)(c3ccc(Cl)c(C(F)(F)F)c3)CC2)c2ccccc2CSc2ccccc21 (stereo not given),Ki,224 nM
N#CC(CCCN1CCC(O)(c2ccc(Cl)cc2)CC1)c1ccc(O)cc1 (stereo not given),Ki,975 nM
N#CC1(CCCN2CCC(O)(Cc3ccccc3)CC2)c2ccccc2CSc2ccccc21 (stereo not given),Ki,405 nM
Cc1ccccc1C1(O)CCN(CCCC2(C#N)c3ccccc3CSc3ccccc32)CC1 (stereo not given),Ki,164 nM
N#CC(CCCN1CCC(O)(c2ccc(I)cc2)CC1)(c1ccccc1)c1ccccc1,Ki,233 nM
N#CC(CCCN1CCC(O)(c2ccc(Cl)cc2)CC1)c1ccccc1Cl (stereo not given),Ki,306 nM
N#CC1(CCCN2CCC(O)(c3ccc(Br)cc3)CC2)c2ccccc2CSc2ccccc21 (stereo not given),Ki,22 nM
C[N+]1(CCCC(C#N)(c2ccccc2)c2ccccc2)CCC(O)(c2ccc(Cl)cc2)CC1 (stereo not given),Ki,8 nM
N#CC(CCCN1CCC(O)(c2ccc(Cl)cc2)CC1)c1ccc(F)cc1 (stereo not given),Ki,533 nM
N#CC(CCCN1CCC(O)(c2cccc(Cl)c2)CC1)(c1ccccc1)c1ccccc1,Ki,385 nM
N#CC(CCCN1CCC(O)(c2cc(Cl)cc(Cl)c2)CC1)(c1ccccc1)c1ccccc1,Ki,1330 nM
N#CC(CCCN1CCC(O)(c2ccc3ccccc3c2)CC1)(c1ccccc1)c1ccccc1,Ki,715 nM
N#CC(CCCN1CCC(CO)(c2ccccc2)CC1)(c1ccccc1)c1ccccc1,Ki,7500 nM
N#CC(CCCN1CCC(O)(c2ccc(Cl)cc2)CC1)c1cccc([N+](=O)[O-])c1 (stereo not given),Ki,510 nM
N#CC1(CCCN2CCC(O)(c3cccc(C(F)(F)F)c3)CC2)c2ccccc2CSc2ccccc21 (stereo not given),Ki,623 nM
N#CC(CCCN1CCC(O)(c2ccc(Cl)cc2)CC1)c1ccccc1Br (stereo not given),Ki,366 nM
CCC(C#N)(CCCN1CCC(O)(c2ccc(Cl)cc2)CC1)c1ccccc1 (stereo not given),Ki,93 nM
CC(C#N)(CCCN1CCC(O)(c2ccc(Cl)cc2)CC1)c1ccccc1 (stereo not given),Ki,460 nM
N#CC(CCCN1CCC(O)(c2ccc(Cl)cc2)CC1)c1ccc(OCc2ccccc2)cc1 (stereo not given),Ki,3430 nM
N#CC(CCCN1CCC(O)(c2ccc(Cl)cc2)CC1)c1ccc(Cl)cc1 (stereo not given),Ki,463 nM
N#CC(CCCN1CCC(O)(c2ccc(F)cc2)CC1)(c1ccccc1)c1ccccc1,Ki,136 nM
N#CC(CCCN1CCC(O)(c2ccc(Cl)cc2)CC1)(c1ccccc1)C1CCCCC1 (stereo not given),Ki,400 nM
N#CC1(CCCN2CCC(O)(c3ccc(Br)cc3)CC2)c2ccccc2Cc2ccccc21,Ki,29 nM
